Measurements published in US8680012B2, “4-phenyl-pyrane-3,5-diones,4-phenyl-thiopyrane-3,6-diones and cyclohexanetriones as novel herbicides” (Syngenta Crop Protection LLC, priority 2006, dated 2014).

Tests used:
Assay type in all cases: in vivo
[1] = tested on: Alopecurus myosuroides (ALOMY); test: Example B pre-emergence herbicidal activity, glasshouse pot test; details: 312 h, rate 250 g/ha, evaluated after 13 days, read-out: Pre-emergence activity ALOMY (100=total damage to plant; 0=no damage to plant)
Outline: (§1)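 Herbicidal effect was judged 13 days after treatment as percent-style damage (100 = total kill). Seeds in standard soil had grown 1 day (pre) or 8 days (post) in a 24/16 °C, 14 h light, 65% humidity glasshouse before spraying with compound in acetone/water (50:50) containing 0.5% Tween 20.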

[2] = tested on: Amaranthus retroflexus (AMARE); test: as above; details: 312 h, rate 250 g/ha, evaluated after 13 days, read-out: Pre-emergence activity AMARE (100=total damage to plant; 0=no damage to plant)
Outline: as §1

[3] = tested on: Avena fatua (AVEFA); test: as above; details: 312 h, rate 250 g/ha, evaluated after 13 days, read-out: Pre-emergence activity AVEFA (100=total damage to plant; 0=no damage to plant)
Outline: as §1

[4] = tested on: Echinochloa crus-galli (ECHCG); test: as above; details: 312 h, rate 250 g/ha, evaluated after 13 days, read-out: Pre-emergence activity ECHCG (100=total damage to plant; 0=no damage to plant)
Outline: as §1

[5] = tested on: Setaria faberi (SETFA); test: as above; details: 312 h, rate 250 g/ha, evaluated after 13 days, read-out: Pre-emergence activity SETFA (100=total damage to plant; 0=no damage to plant)
Outline: as §1

[6] = tested on: Alopecurus myosuroides (ALOMY); test: Example B post-emergence herbicidal activity, glasshouse pot test; details: 312 h, rate 250 g/ha, evaluated after 13 days, read-out: Post-emergence activity ALOMY (100=total damage to plant; 0=no damage to plant)
Outline: as §1

[7] = tested on: Amaranthus retroflexus (AMARE); test: as above; details: 312 h, rate 250 g/ha, evaluated after 13 days, read-out: Post-emergence activity AMARE (100=total damage to plant; 0=no damage to plant)
Outline: as §1

[8] = tested on: Avena fatua (AVEFA); test: as above; details: 312 h, rate 250 g/ha, evaluated after 13 days, read-out: Post-emergence activity AVEFA (100=total damage to plant; 0=no damage to plant)
Outline: as §1

[9] = tested on: Echinochloa crus-galli (ECHCG); test: as above; details: 312 h, rate 250 g/ha, evaluated after 13 days, read-out: Post-emergence activity ECHCG (100=total damage to plant; 0=no damage to plant)
Outline: as §1

[10] = tested on: Setaria faberi (SETFA); test: as above; details: 312 h, rate 250 g/ha, evaluated after 13 days, read-out: Post-emergence activity SETFA (100=total damage to plant; 0=no damage to plant)
Outline: as §1

Compound	pest or weed control at 250 g/ha [1]	pest or weed control at 250 g/ha [2]	pest or weed control at 250 g/ha [3]	pest or weed control at 250 g/ha [4]	pest or weed control at 250 g/ha [5]	pest or weed control at 250 g/ha [6]	pest or weed control at 250 g/ha [7]	pest or weed control at 250 g/ha [8]	pest or weed control at 250 g/ha [9]	pest or weed control at 250 g/ha [10]
CC1(C)OC(C)(C)C(O)=C(c2cc(-c3ccc(Cl)cc3F)ccc2Cl)C1=O [Compound A-141]	20%	0%	30%	100%	80%	50%	0%	50%	100%	80%
CC1(C)OC(C)(C)C(O)=C(c2cc(-c3ccc(Cl)cc3)ccc2Cl)C1=O [Compound A-142]	60%	0%	70%	70%	100%	100%	0%	80%	100%	80%
Cc1ccc(-c2cnn(Cc3ccccc3)c2)cc1C1=C(O)C(C)(C)OC(C)(C)C1=O [Compound A-143]	20%	0%	0%	0%	70%	90%	0%	80%	100%	90%
CCc1ccc(-c2cc(Cl)c(Cl)cc2Cl)cc1C1=C(O)C(C)(C)OC(C)(C)C1=O [Compound A-144]	100%	30%	80%	90%	100%	100%	40%	100%	100%	100%
CCc1ccc(-c2ccc(C(F)F)cc2)cc1C1=C(O)C(C)(C)OC(C)(C)C1=O [Compound A-147]	100%	0%	60%	100%	70%	100%	0%	90%	100%	70%
CC1(C)OC(C)(C)C(O)=C(c2cc(-c3ccc(Cl)cc3)ccc2Br)C1=O [Compound A-149]	60%	0%	30%	100%	90%	90%	20%	70%	100%	100%
CCc1ccc(-c2ccc(Cl)cn2)cc1C1=C(O)C(C)(C)OC(C)(C)C1=O [Compound A-150]	90%	0%	40%	100%	100%	90%	0%	80%	100%	100%
CCc1ccc(-c2ccc(OC(F)F)cc2)cc1C1=C(O)C(C)(C)OC(C)(C)C1=O [Compound A-151]	100%	0%	100%	100%	100%	100%	0%	100%	100%	100%
CCc1ccc(-c2cc(F)c(Cl)c(F)c2)cc1C1=C(O)C(C)(C)OC(C)(C)C1=O [Compound A-152]	70%	0%	90%	100%	100%	100%	0%	100%	100%	100%
CCc1ccc(-c2ccc(Cl)c(F)c2F)cc1C1=C(O)C(C)(C)OC(C)(C)C1=O [Compound A-153]	60%	0%	50%	100%	100%	100%	30%	100%	100%	100%
CCc1ccc(-c2ccc(Cl)c(C(F)(F)F)c2F)cc1C1=C(O)C(C)(C)OC(C)(C)C1=O [Compound A-154]	50%	0%	20%	100%	90%	100%	0%	70%	100%	100%
CCc1ccc(-c2ccc(Cl)c(Cl)c2F)cc1C1=C(O)C(C)(C)OC(C)(C)C1=O [Compound A-155]	50%	0%	0%	100%	100%	100%	40%	90%	100%	100%
Cc1ccc(-c2ccc(Cl)cc2Cl)cc1C1=C(O)C(C)(C)SC(C)(C)C1=O [Compound C-6]	0%	0%	0%	0%	0%	20%	40%	0%	60%	30%
Cc1ccc(-c2ccc(Cl)cc2Cl)cc1C1=C(O)C(C)(C)S(=O)(=O)C(C)(C)C1=O [Compound C-8]	0%	0%	0%	0%	0%	20%	0%	0%	60%	40%
CCc1ccc(-c2ccc(Cl)cc2Cl)cc1C1=C(O)C(C)(C)S(=O)(=O)C(C)(C)C1=O [Compound C-11]	0%	0%	80%	0%	0%	70%	20%	60%	80%	30%
CCc1ccc(-c2ccc(Cl)c(F)c2)cc1C1=C(O)C(C)(C)[S+]([O-])C(C)(C)C1=O (centres unmarked) [Compound C-12]	0%	0%	90%	20%	90%	80%	0%	90%	90%	90%
CCc1ccc(-c2ccc(Cl)c(F)c2)cc1C1=C(O)C(C)(C)S(=O)(=O)C(C)(C)C1=O [Compound C-13]	20%	0%	90%	30%	80%	80%	20%	90%	100%	100%
